Legend:
Test in all cases: relative viability (nuclei count vs DMSO), 5 days (fraction); higher = more cells survive
GSK-J4 + OSI-027 = compound: CCOC(=O)CCNc1cc(N2CCc3ccccc3CC2)nc(-c2ccccn2)n1 [GSK-J4] + COc1cccc2cc(-c3nc([C@H]4CC[C@H](C(=O)O)CC4)n4ncnc(N)c34)[nH]c12 [OSI-027] (partner 0.5 µM)
Method in brief: (§1)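 Each reported value is a median over duplicate plates. It expresses relative viability: treated-well nuclei count divided by vehicle-well nuclei count. Lung cancer cell lines in 1536-well plates were dosed by pin tool a day after seeding, alone with one drug or with a fixed anchor-drug dose plus five library-drug doses (not always all listed) in √10 steps, and nuclei were counted after 5 days.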

GSK-J4 + Phenformin = compound: CCOC(=O)CCNc1cc(N2CCc3ccccc3CC2)nc(-c2ccccn2)n1 [GSK-J4] + N=C(N)NC(=N)NCCc1ccccc1 [Phenformin] (partner 250 µM)
Method in brief: as §1

GSK-J4 + Olaparib = compound: CCOC(=O)CCNc1cc(N2CCc3ccccc3CC2)nc(-c2ccccn2)n1 [GSK-J4] + O=C(c1cc(Cc2n[nH]c(=O)c3ccccc23)ccc1F)N1CCN(C(=O)C2CC2)CC1 [Olaparib] (partner 8 µM)
Method in brief: as §1

AZ3146 + Luminespib = compound: CN1CCC(CC1)OC2=CC(=C(C=C2)NC3=NC=C4C(=N3)N(C(=O)N4C)C5CCCC5)OC [AZ3146] + CCNC(=O)c1noc(-c2cc(C(C)C)c(O)cc2O)c1-c1ccc(CN2CCOCC2)cc1 [Luminespib] (partner 0.01 µM)
Method in brief: as §1

Work on UMC-11 yielded a relative viability (GSK-J4 + OSI-027; first compound 0.5 µM) of 0.474, a relative viability (GSK-J4 + OSI-027; first compound 5 µM) of 0.362 and a relative viability (GSK-J4 + OSI-027; first compound 15.81 µM) of 0.423. The relative viability (GSK-J4 + OSI-027; first compound 50 µM) was 0.34, the relative viability (GSK-J4 + Phenformin; first compound 0.5 µM) was 0.276 and the relative viability (GSK-J4 + Phenformin; first compound 5 µM) was 0.241. For the same cell line, the relative viability (GSK-J4 + Phenformin; first compound 15.81 µM) was 0.306, the relative viability (GSK-J4 + Phenformin; first compound 50 µM) was 0.294 and the relative viability (GSK-J4 + Olaparib; first compound 0.5 µM) was 0.364. The relative viability (GSK-J4 + Olaparib; first compound 1.581 µM) was 0.324, the relative viability (GSK-J4 + Olaparib; first compound 5 µM) was 0.299 and the relative viability (GSK-J4 + Olaparib; first compound 15.81 µM) was 0.353. For the same cell line, the relative viability (GSK-J4 + Olaparib; first compound 50 µM) was 0.272, the relative viability (AZ3146 + Luminespib; first compound 0.08 µM) was 0.959 and the relative viability (AZ3146 + Luminespib; first compound 0.253 µM) was 1.2. For the same cell line, the relative viability (AZ3146 + Luminespib; first compound 0.8 µM) was 1.09, the relative viability (AZ3146 + Luminespib; first compound 2.53 µM) was 0.86 and the relative viability (AZ3146 + Luminespib; first compound 8 µM) was 0.256.

Reference: the supplement of paper PMC10307832
